Earlier results, collected in paper PMC8258280 (Virologica Sinica, 2021).

System: SARS-CoV 3CL^pro
Conditions: read-out: IC50 against SARS-CoV 3CL^pro

SMILES: O=c1cc(-c2ccc(O)c(-c3c(O)cc(O)c4c(=O)cc(-c5ccc(O)cc5)oc34)c2)oc2cc(O)cc(O)c12 [amentoflavone]
- IC50: 8.3 µM
